Measurements reported in patent publication US7718651B2, “Inhibitors of FtsZ and uses thereof” (priority 2002, dated 2010).
≈ marks a conversion by molar mass, not a printed value. Where two headings read alike, the source gives them in different places.

What was measured:
Type in all cases: cell-based
Vero cells = test: Cytotoxicity in Vero cells (MTS assay); conditions: Chlorocebus sabaeus
M. tuberculosis H37Rv [1] = test: MIC99 determination, BACTEC 460 radiometric system; conditions: for MIC99: Table 3, read-out: Screen 2 MIC99
M. tuberculosis H37Rv [2] = test: microbe, parasite or virus in culture; conditions: for inhibition of growth at 12.5 µg/mL: Mycobacterium tuberculosis, at 12.5% μg/ml (so in the source), read-out: Primary Screen PI (% inhibition of growth); for activity against M. tuberculosis H37Rv in the primary screen: in words
[3] = Vero cells, Table 8, read-out: IC50
[4] = Mycobacterium tuberculosis, M. tuberculosis H37Rv, Table 8, read-out: MIC
[5] = M. tuberculosis H37Rv, screen concentration 12.5 g/ml [sic], Table 8
[6] = Mycobacterium tuberculosis, M. tuberculosis H37Rv
[7] = Mycobacterium tuberculosis, H37RV

Compound | % Inh (M. tuberculosis H37Rv [2]; [5]) [%] | other results
CCOC(=O)Nc1cc2c(c(N)n1)N=C(c1ccc(OC)cc1)C(C)N2 (stereo not shown) [Compound A44] | 94 | IC50 (Vero cells; [3]): 1.53 mg/L (≈ 4.31 µM); MIC (M. tuberculosis H37Rv [1]; [4]): 12.5 mg/L (≈ 35.2 µM)
CCOC(=O)Nc1cc2c(c(N)n1)N=C(c1ccccc1)C(C)(C)S2.Cl [Compound A40] | 95 | MIC (M. tuberculosis H37Rv [1]; [4]): > 6.25 mg/L
CCOC(=O)Nc1cc(NC(C)CCCN(CC)CC)c2nc(-c3ccc(Cl)cc3)cnc2n1.Cl.Cl (stereo not shown) [Compound A34] | 97 | IC50 (Vero cells): 2.28 mg/L; MIC (M. tuberculosis H37Rv [1]; [4]): 6.25 mg/L
CCOC(=O)Nc1cc(Nc2ccc(Cl)cc2)c2nccnc2n1 [Compound A43] | 94 | MIC (M. tuberculosis H37Rv [1]; [4]): 6.25 mg/L (≈ 18.2 µM)
CCOC(=O)Nc1cc2c(c(N)n1)N=C(c1ccc3c(c1)OCO3)[C@H](C)N2 [Compound A12] | 99 | IC50 (Vero cells; [3]): 1.51 mg/L (≈ 4.09 µM); MIC (M. tuberculosis H37Rv [1]; [4]): 12.5 mg/L (≈ 33.8 µM)
CCOC(=O)Nc1cc(NC(C)CCCN(CC)CC)c2ncc(-c3ccc(OC)cc3)nc2n1.Cl (stereo not shown) [Compound A22] | 98 | IC50 (Vero cells): 8.7 mg/L; MIC (M. tuberculosis H37Rv [1]; [4]): 1.56 mg/L
CCOC(=O)Nc1cc(N)c(N)c(NC(C)C(O)c2ccccc2)n1 (stereo not shown) [Compound A10] | 99 | IC50 (Vero cells; [3]): > 200 mg/L; MIC (M. tuberculosis H37Rv [1]; [4]): 12.5 mg/L (≈ 36.2 µM)
CCOC(=O)Nc1cc2[nH]c(-c3ccc4c(c3)OCO4)nc2c(NC(c2ccccc2)c2ccccc2)n1 [Compound A39] | 95 | IC50 (Vero cells; [3]): > 200 mg/L; MIC (M. tuberculosis H37Rv [1]; [4]): 1.56 mg/L (≈ 3.07 µM)
CCOC(=O)Nc1cc2c(c(N)n1)N=C(c1ccccc1)[C@H](C)O2 [Compound A56] | 90 | MIC (M. tuberculosis H37Rv [1]; [4]): 12.5 mg/L (≈ 38.3 µM)
CCOC(=O)Nc1cc(NC(C)CCCN(CC)CC)c2ncc(-c3ccccc3)nc2n1.Cl.Cl (stereo not shown) [Compound A37] | 96 | MIC (M. tuberculosis H37Rv [1]; [4]): 12.5 mg/L
CCOC(=O)Nc1cc(NC(C)CCCN(CC)CC)c2nc(-c3ccccc3)c(-c3ccccc3)nc2n1 (stereo not shown) [Compound A1] | 100 | IC50 (Vero cells; [3]): 4.3 mg/L (≈ 8.16 µM); MIC (M. tuberculosis H37Rv [1]; M. tuberculosis H37Rv, Table 8): 0.2 mg/L (≈ 0.38 µM)
CCN(CC)S(=O)(=O)c1ccc(CNc2cc(N)nc3nc(-c4ccccc4)c(-c4ccccc4)nc23)cc1 [Compound 4427-143, 4-[(6-Amino-2,3-diphenyl-pyrdo[2,3b]pyrazin-8-yl-amino)-methyl]-N,N-diethyl-benzenesulfonamide] | – | MIC99 (M. tuberculosis H37Rv [1]; [6]): 3.13 mg/L (≈ 5.81 µM); inhibition of growth at 12.5 µg/mL (M. tuberculosis H37Rv [2]; M. tuberculosis H37Rv): 99%; activity against M. tuberculosis H37Rv in the primary screen (M. tuberculosis H37Rv [2]): demonstrated activity
CCOC(=O)Nc1cc2c(c(N)n1)N=C(c1ccc(OCc3ccccc3)cc1)[C@H](C)N2 [Compound A8] | 99 | MIC (M. tuberculosis H37Rv [1]; [4]): 6.25 mg/L (≈ 14.5 µM)
CCOC(=O)Nc1cc(NC/C(=N\O)C23CC4CC(CC(C4)C2)C3)c([N+](=O)[O-])c(N)n1 [Compound A47] | 93 | MIC (M. tuberculosis H37Rv [1]; [4]): > 12.5 mg/L
O=C(Nc1cc(Cl)cc(NC(=O)Oc2ccccc2)n1)Oc1ccccc1 [Compound A36] | 97 | MIC (M. tuberculosis H37Rv [1]; [7]): 12.5 mg/L (≈ 32.6 µM)
CCOC(=O)Nc1cc(NC(C)CCCN(CC)CC)c2ncc(-c3ccc(Cl)cc3)nc2n1.Cl (stereo not shown) [Compound A5] | 99 | MIC (M. tuberculosis H37Rv [1]; [4]): 1.56 mg/L
CCOC(=O)Nc1cc2c(c(N)n1)N=C(c1ccc(OCc3ccccc3)cc1)[C@@H](C)N2 [Compound A9] | 99 | MIC (M. tuberculosis H37Rv [1]; [4]): 6.25 mg/L (≈ 14.5 µM)
CCOC(=O)Nc1cc2c(c(N)n1)N=C(c1ccccc1)C(c1ccccc1)O2 (stereo not shown) [Compound A55] | 90 | MIC (M. tuberculosis H37Rv [1]; [4]): 6.25 mg/L (≈ 16.1 µM)
CCOC(=O)Nc1cc(NC(C)CCCN(CC)CC)c2nc(-c3ccc([N+](=O)[O-])cc3)cnc2n1 (stereo not shown) [Compound A50] | 92 | MIC (M. tuberculosis H37Rv [1]; [7]): > 6.25 mg/L
CCOC(=O)Nc1cc2nc(-c3ccccc3)c(-c3ccccc3)nc2c(NC(=O)OCC)n1 [Compound A51] | 92 | MIC (M. tuberculosis H37Rv [1]; [4]): > 6.25 mg/L
CCOC(=O)Nc1cc2c(c(N)n1)N=C(c1ccccc1)[C@@H](C)N2 [Compound A98] | – | % Inh (M. tuberculosis H37Rv [2]): 57%
CCOC(=O)Nc1cc(NC(C)CCCN(CC)CC)c2nc(-c3ccc(Cl)cc3)c(-c3ccc(Cl)cc3)nc2n1 (stereo not shown) [Compound A6] | 99 | MIC (M. tuberculosis H37Rv [1]; [4]): 1.56 mg/L (≈ 2.62 µM)
CCOC(=O)Nc1cc(NCCc2ccc(S(N)(=O)=O)cc2)c2ncc(C)nc2n1 [Compound A251] | 0 | –

Compound | % Inh (M. tuberculosis H37Rv [2]; [5]) [%] | other results
CCOC(=O)Nc1cc2[nH]c(CCc3ccccc3)nc2c(N(CCc2ccccc2)Cc2ccccc2)n1 [Compound A19] | 98 | –
CCOC(=O)Nc1cc2c([nH]c(=S)n2N)c(N)n1 [Compound A200] | 0 | –
COC(=O)Nc1cc(Cl)c([N+](=O)[O-])c(NC(=O)OC)n1 [Compound A165] | 8 | –
CCOC(=O)Nc1cc2c(c(N)n1)N=C(CN(C)c1ccccc1)CN2 [Compound A80] | 70 | –
CCOC(=O)Nc1cc(N)c2ncc(-c3ccc(Cl)cc3)nc2n1 [Compound A262] | 0 | –
CCOC(=O)Nc1ccccn1 [Compound A207] | 0 | –
CCOC(=O)Nc1cc(NC(C)CCCN(CC)CC)c([N+](=O)[O-])c(N)n1 (stereo not shown) [Compound A243] | 0 | –
CCOC(=O)Nc1cc(NCC(=O)c2ccc(-c3ccccc3)cc2)c([N+](=O)[O-])c(N)n1 [Compound A300] | 0 | –
CCOC(=O)Nc1cc2c(nc(SCc3ccc4c(c3)OCO4)n2N)c(N)n1 [Compound A91] | 61 | –
CCOC(=O)Nc1cc2nc(C)cnc2c(NC(=O)OCC)n1 [Compound A277] | 0 | –
C=CCNc1cc(NC(=O)OCC)nc(N)c1[N+](=O)[O-] [Compound A279] | 0 | –
CCOC(=O)Nc1cc(NC(C)C(O)c2ccc3c(c2)OCO3)c([N+](=O)[O-])c(N)n1 (stereo not shown) [Compound A163] | 8 | –
CCOC(=O)Nc1cc2[nH]nnc2c(Cl)n1 [Compound A206] | 0 | –
CCOC(=O)Nc1cc(N[C@H](C)[C@H](O)c2ccc(O)cc2)c([N+](=O)[O-])c(N)n1 [Compound A173] | 5 | –
CCOC(=O)Nc1cc2ncc(C)nc2c(NC(=O)OCC)n1 [Compound A276] | 0 | –
CCOC(=O)Nc1cc2ncc(CNc3ccc(C(=O)OCC)cc3)nc2c(N)n1 [Compound A289] | 0 | –
CCOC(=O)Nc1cc(NC(c2ccccc2)c2ccccc2)c2nc(-c3cc(OC)c(OC)c(OC)c3)cnc2n1 [Compound A265] | 0 | –
CCOC(=O)Nc1cc(N(C)N)c([N+](=O)[O-])c(N)n1 [Compound A209] | 0 | –
CCOC(=O)Nc1cc(N)c([N+](=O)[O-])c(NC(=O)OCC)n1 [Compound A272] | 0 | –
CCOC(=O)Nc1cc2c(c(N)n1)N=C(Cc1ccccc1)[C@H](C)N2 [Compound A74] | 72 | –
CCOC(=O)Nc1cc2c(nc(-c3ccccc3)n2C(c2ccccc2)c2ccccc2)c(Cl)n1 [Compound A89] | 63 | –
CCOC(=O)Nc1cc(NC/C(CCc2ccccc2)=N\O)c([N+](=O)[O-])c(N)n1 [Compound A136] | 21 | –
CCOC(=O)N(Cc1ccccc1)c1cc(Cl)c([N+](=O)[O-])c(N)n1 [Compound A293] | 0 | –

Compound | % Inh (M. tuberculosis H37Rv [2]; [5]) [%] | other results
CCOC(=O)Nc1cc2c(c(N)n1)N=C(c1ccc(O)cc1)C(C)N2 (stereo not shown) [Compound A197] | 0 | –
CCOC(=O)Nc1cc(Cl)c2nc(-c3cc(OC)c(OC)c(OC)c3)c(-c3cc(OC)c(OC)c(OC)c3)nc2n1 [Compound A268] | 0 | –
COC(=O)Nc1cc(Cl)cc(NC(=O)OC)n1 [Compound A201] | 0 | –
CCOC(=O)Nc1cc2c(c(N)n1)N=C(c1ccccc1)C(c1ccccc1)O2 (stereo not shown) [CAO-040, (5-Amino-2,3-diphenyl-2H-pyrido-[4,3b][1,4]oxazin-7-yl)-carbamic acid ethyl ester] | – | MIC99 (M. tuberculosis H37Rv [1]; [6]): 6.25 mg/L (≈ 16.1 µM); inhibition of growth at 12.5 µg/mL (M. tuberculosis H37Rv [2]; M. tuberculosis H37Rv): 90%; activity against M. tuberculosis H37Rv in the primary screen (M. tuberculosis H37Rv [2]): demonstrated activity
CCOC(=O)Nc1cc2[nH]c(-c3ccc(OC)cc3)nc2c(N)n1 [Compound A114] | 41 | –
CCOC(=O)Nc1ccc(N)c(N)n1 [Compound A236] | 0 | –
CCOC(=O)Nc1cc(N)c2c(n1)NCC(C)=N2 [Compound A283] | 0 | –
O=C(Nc1cc(Cl)cc(NC(=O)OCc2ccccc2)n1)OCc1ccccc1 [Compound A188] | 1 | –
CCOC(=O)Nc1cc2oc(=O)c(-c3ccccc3)nc2c(N)n1 [Compound A228] | 0 | –
CCOC(=O)Nc1cc(NC/C(=N/O)c2ccc(C)cc2)c([N+](=O)[O-])c(N)n1 [Compound A210] | 0 | –
CCOC(=O)Nc1cc2c(c(N)n1)N=C(c1ccc(OC)c(OC)c1)CO2 [Compound A193] | 0 | –
CCOC(=O)Nc1cc(NC/C(CNc2ccc(C(=O)OCC)cc2)=N/O)c([N+](=O)[O-])c(N)n1 [Compound A291] | 0 | –
CCOC(=O)Nc1cc2c(ncn2/N=C/c2ccc(OC)cc2)c(N)n1 [Compound A242] | 0 | –
CCOC(=O)Nc1cc(NCCCCc2ccccc2)c(N)c(N)n1 [Compound A93] | – | % Inh (M. tuberculosis H37Rv [2]): 60%
CCOC(=O)Nc1cc2c(c(N)n1)N=C(c1ccccc1OC)CO2 [Compound A131] | 25 | –
CCOC(=O)Nc1cc(NC(C)/C(=N/O)c2ccc(O)cc2)c([N+](=O)[O-])c(N)n1 (stereo not shown) [Compound A186] | 1 | –
CCOC(=O)Nc1cc2[nH]c(-c3ccc([N+](=O)[O-])cc3)nc2c(N(CCc2ccccc2)Cc2ccccc2)n1 [Compound A14] | 98 | –
CCOC(=O)Nc1cc2c([nH]c(=S)n2/N=C/c2ccc3c(c2)OCO3)c(N)n1 [Compound A241] | 0 | –
CCOC(=O)Nc1cc2c(c(N)n1)N=C(c1cc(OC)c(OC)c(OC)c1)CO2 [Compound A227] | 0 | –
CCOC(=O)Nc1cc(N/N=C/c2ccccc2)c(N)c(N)n1 [Compound A54] | 91 | –
CCOC(=O)Nc1cc(N)c2nc(O)[nH]c2n1 [Compound A275] | 0 | –
CCOC(=O)Nc1cc2c(c(N)n1)N=C(c1cc(OC)cc(OC)c1)[C@H](C)O2 [Compound A42] | 95 | MIC (M. tuberculosis H37Rv [1]; [4]): 12.5 mg/L (≈ 32.3 µM)
